The results in this text go back to ChEMBL document CHEMBL3259798, “A novel Lipoprotein lipase (LPL) agonist rescues the enzyme from inhibition by angiopoietin-like 4 (ANGPTL4)” (Bioorg Med Chem Lett, 2014).

Molecules are shown by their SMILES. Activity calls are given as the source filed them. The rule behind the calls is not given here.

Assay [1] has as its target T1, Lipoprotein lipase (Homo sapiens) (UniProt P06858).
T1 sequence (whole entry): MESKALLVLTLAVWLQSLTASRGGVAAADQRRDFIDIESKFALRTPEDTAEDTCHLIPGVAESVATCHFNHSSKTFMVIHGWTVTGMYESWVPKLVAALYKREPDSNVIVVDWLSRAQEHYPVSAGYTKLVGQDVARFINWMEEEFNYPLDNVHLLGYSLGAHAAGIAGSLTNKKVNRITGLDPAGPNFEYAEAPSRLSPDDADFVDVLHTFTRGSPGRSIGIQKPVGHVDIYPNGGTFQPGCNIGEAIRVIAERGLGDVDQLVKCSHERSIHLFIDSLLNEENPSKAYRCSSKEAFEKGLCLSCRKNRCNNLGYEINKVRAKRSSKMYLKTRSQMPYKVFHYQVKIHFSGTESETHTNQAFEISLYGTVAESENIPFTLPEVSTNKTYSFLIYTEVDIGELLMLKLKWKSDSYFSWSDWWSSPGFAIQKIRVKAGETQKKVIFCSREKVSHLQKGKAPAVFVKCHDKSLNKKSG
Kind of assay: Agonist activity at lipoprotein lipase (unknown origin) using p-nitrophenylbutyrate as substrate by spectrophotometric analysis relative to control. Also noted: concentration or dose not given beside the values.

For assay [2], the target named is T1, Lipoprotein lipase (Homo sapiens). Nature of the assay: Activation of lipoprotein lipase (unknown origin) assessed as reversal of ANGPTL4-mediated enzyme inhibition treated with ANGPTL4 for 30 mins followed by substrate addition measured after 20 mins by spectrophotometric analysis.
The target is the same in assay [3]. Nature of the assay: Agonist activity at lipoprotein lipase (unknown origin) using p-nitrophenylbutyrate as substrate by spectrophotometric analysis relative to NO-1886.
For assay [4] the target is unchanged. Kind of assay: Agonist activity at lipoprotein lipase (unknown origin) using p-nitrophenylbutyrate as substrate at 40 uM by spectrophotometric analysis.
The target is the same in assay [5]. Nature of the assay: Agonist activity at lipoprotein lipase (unknown origin) using p-nitrophenylbutyrate as substrate by spectrophotometric analysis.

Turning to `CC1(C(=O)NCCCN2CCOCC2)CC1(Br)Br` (configuration not stated), the Activity in assay [1] was found to be 130%.
Consider `CC1(C)CC1(C(=O)NCCCn1ccnc1)c1ccc(F)cc1` (configuration not stated), for which the Activity in assay [1] was 342%; in assay [2], “Dose-dependent effect”. The compound further came in with a fold change (FC) in assay [3] of 2.
The compound `Cc1cn(CCCNC(=O)C2(C)CC2(Br)Br)cn1` (configuration not stated) had an Activity in assay [1] of 113%.
With `CC1(C(=O)NCCCn2cnc(Cl)c2)CC1(Br)Br` (configuration not stated), the Activity in assay [1] amounted to 122%.
In the case of `CC1(C(=O)NCCCn2ccnc2)CC1(Cl)Cl` (configuration not stated), the result in assay [4] was Active. For the same compound, the Activity result in assay [5] is “Dose-dependent effect”; in assay [1], 196%; in assay [2], “Dose-dependent effect”.
For `CCOP(=O)(Cc1ccc(C(=O)Nc2ccc(Br)cc2C#N)cc1)OCC`, the Activity in assay [1] was found to be 170%. Besides, the result in assay [2] was inactive.
